According to patent US10786508B2, “Substituted imidazo[1,5-A]-pyrimidines and their use in the treatment of medical disorders” (Lysosomal Therapeutics Inc., priority 2014, dated 2020):
Values after ≈ are worked out from the molar mass of the structure shown.

How the values were obtained:
[1] = Compound solubility in water; assay type: physicochemical
[2] = target: T1, glucocerebrosidase (Gcase) (Homo sapiens, UniProt P04062); assay: Glucocerebrosidase (Gcase) activation assay, 4-methylumbelliferyl-beta-D-glucopyranoside substrate, with saposin C; assay type: biochemical; conditions: 10 nM GCase, 100 nM saposin C, pH 4.7; for activation at 0.1 µM: 0.1 μM test compound, read-out: Percent Gease Activation 0.1 μM Test Compound; for activation at 1 µM: 1 μM test compound, read-out: Percent Gease Activation 1 μM Test Compound
T1 construct: micellar solution containing 10 nM GCase and 100 nM saposin C
T1 sequence (P04062 40-536): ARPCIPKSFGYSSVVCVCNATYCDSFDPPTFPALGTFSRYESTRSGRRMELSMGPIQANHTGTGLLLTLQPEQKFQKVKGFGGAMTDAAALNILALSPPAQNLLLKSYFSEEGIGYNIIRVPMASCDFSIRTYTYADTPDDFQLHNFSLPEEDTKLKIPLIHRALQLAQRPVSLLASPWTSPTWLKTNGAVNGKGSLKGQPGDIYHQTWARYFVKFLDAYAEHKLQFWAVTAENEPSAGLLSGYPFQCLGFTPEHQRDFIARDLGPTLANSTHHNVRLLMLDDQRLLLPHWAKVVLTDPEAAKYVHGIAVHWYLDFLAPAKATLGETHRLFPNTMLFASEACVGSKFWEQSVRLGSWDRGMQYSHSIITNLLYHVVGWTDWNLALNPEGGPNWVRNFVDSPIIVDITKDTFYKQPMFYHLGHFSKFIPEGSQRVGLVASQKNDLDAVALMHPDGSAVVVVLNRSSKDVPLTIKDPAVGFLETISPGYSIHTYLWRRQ
Experimental: The ability of exemplary compounds to activate glucocerebrosidase (Gcase) was measured.
A 484 μL aliquot of a 1.0 mg/mL solution of phosphatidylserine (PS) (Sigma P7769) in chloroform was evaporated under a stream of nitrogen for 1 hour. The lipid film was dissolved over 4 minutes of vigorous vortexing in 40 mL of 176 mM K2HPO4/50 mM citric acid (pH 4.7) containing 7.5 μL of triton X-100, resulting in a mixed micellar preparation with a composition of 0.32 mM triton and 0.37 mol % PS. 4-Methylumbelliferyl-beta-D-glucopyranoside (ACROS-337025000) was dissolved in the micellar solution to a final concentration of 2 mM for use as the reaction substrate.
Test compounds were diluted to the desired concentrations with dimethylsulfoxide (DMSO) from 10 mM stocks, and 0.41 μL of the DMSO compound mixture was added to 100 μL of micellar solution containing 10 nM GCase and 100 nM saposin C (Enzo ALX-201-262-C050). Pre-incubation was allowed to occur for 30 minutes at room temperature, after which the reaction was initiated by combining 25 μL of substrate solution with 25 μL of compound/GCase/saposin mixture. The reaction proceeded for 15 minutes at room temperature and was stopped by adding 150 μL of 1M glycine, pH 12.5. The endpoint of the reaction was monitored by measuring fluorescence intensity (excitation: 365 nm; emission: 440 nm) on a SpectraMax i3 instrument (Molecular Devices). Test compounds were screened at 1.0 and 0.1 μM final concentration, and subsequent 8-point dose response curves were obtained using 3-fold dilutions from a maximum final concentration of 5 μM.
For experiments in which the test compound was used at a concentration of 1.0 μM, the symbol “+” indicates less than 30% Gcase activation; the symbol “++” indicates Gcase activation in the range of 30% up to 60%; and the symbol “+++” indicates Gcase activation greater than 60%. For experiments in which the test compound was used at a concentration of 0.1 μM, the symbol “*” indicates less than 10% Gcase activation; the symbol “**” indicates Gcase activation in the range of 10% up to 20%; and the symbol “***” indicates greater than 20% Gcase activation.

Compound | solubility [1] [µg/mL] | activation at 0.1 µM [2] [%] | activation at 1 µM [2] [%] | Compound Solubility in Water [1] [µg/mL]
COCc1cc(C2CC2)n2cnc(C(=O)NC(C)(C)c3cccc(C#N)c3)c2n1 [III-54] | 23.4 (≈ 60.1 µM) | < 10 | < 30 | 
COCc1cc(C2CC2)n2cnc(C(=O)NC3(C)CCOc4c(F)ccc(F)c43)c2n1 (centres unmarked) [III-72] | 23.6 (≈ 55.1 µM) | < 10 | 30 to 60 | 
Cc1cc(C)n2cnc(C(=O)Nc3ccc(-c4ccco4)nc3)c2n1 [III-66] | < 0.01 | < 10 | < 30 | 
CO[C@H]1CC[C@@H](C(C)(C)NC(=O)c2ncn3c(C)cc(C)nc23)CC1 [III-63] | 36.2 (≈ 105 µM) | < 10 | 30 to 60 | 
O=C(NC1CCCc2ccccc21)c1ncn2c(C(F)F)cc(C(F)F)nc12 (centres unmarked) [III-32] | 17.2 (≈ 43.8 µM) | < 10 | < 30 | 
Cc1cc(C)n2cnc(C(=O)Nc3ccc(-c4cccs4)nc3)c2n1 [III-29] | 0.4 (≈ 1.14 µM) | 10 to 20 | > 60 | 
Cc1cc(C)n2cnc(C(=O)Nc3ccc4c(c3)CCC4)c2n1 [III-22] | 4.7 (≈ 15.3 µM) | 10 to 20 | > 60 | 
Cc1cc(C)n2cnc(C(=O)N[C@H](C)c3ccc(Cl)cc3)c2n1 [III-83] | 16.5 (≈ 50.2 µM) | < 10 | 30 to 60 | 
Cc1cc(C)n2cnc(C(=O)Nc3ccc4oc(-c5ccncc5)nc4c3)c2n1 [III-19] | 0.3 (≈ 0.78 µM) | < 10 | 30 to 60 | 
CCCOc1cccc(C(C)(C)NC(=O)c2ncn3c(COC)c(OC)c(C)nc23)c1 [III-53] | 52.9 (≈ 124 µM) | < 10 | 30 to 60 | 
Cc1cc(C)n2cnc(C(=O)NC3(C)CCCc4ccccc43)c2n1 (centres unmarked) [III-36] | 11.9 (≈ 35.6 µM) | < 10 | > 60 | 
Cc1cc(C(C)C)n2cnc(C(=O)N[C@H]3CCCc4ccccc43)c2n1 [III-35] | 21.6 (≈ 62 µM) | < 10 | < 30 | 
COc1cc(NC(=O)c2ncn3c(C)cc(C)nc23)ccc1-c1cnco1 [III-14] | 0.5 (≈ 1.38 µM) | < 10 | < 30 | 
Cc1cc(C)n2cnc(C(=O)Nc3ccc(Cl)c(COc4cccnc4)c3)c2n1 [III-23] | 0.3 (≈ 0.736 µM) | 10 to 20 | > 60 | 
C#Cc1ccc(NC(=O)c2ncn3c(C)cc(C)nc23)cc1 [III-1] | < 1.5 | 10 to 20 | > 60 | 
Cc1cc(C)n2cnc(C(=O)Nc3ccc4c(c3)OCO4)c2n1 [III-12] | 3.4 (≈ 11 µM) | < 10 | < 30 | 
[2H]C1(NC(=O)c2ncn3c(C)cc(C)nc23)CCCCc2ccccc21 (centres unmarked) [III-38] | 14.9 (≈ 44.4 µM) | 10 to 20 | > 60 | 
CCOCc1cccc(C(C)(C)NC(=O)c2ncn3c(COC)cc(C4CC4)nc23)c1 [III-59] | 26.3 (≈ 62.2 µM) | < 10 | 30 to 60 | 
COc1ccccc1[C@H](C)NC(=O)c1ncn2c(C)cc(C)nc12 [III-75] | 22.6 (≈ 69.7 µM) | < 10 | 30 to 60 | 
CO[C@H]1CC[C@H](C(C)(C)NC(=O)c2ncn3c(C)cc(C)nc23)CC1 [III-62] | 27 (≈ 78.4 µM) | < 10 | < 30 | 
Cc1cc(C)n2cnc(C(=O)Nc3ccc4[nH]c(-c5ccco5)nc4c3)c2n1 [III-20] | 0.3 (≈ 0.806 µM) | < 10 | < 30 | 
Cc1cc(C)n2cnc(C(=O)Nc3ccc(-c4ccco4)cc3)c2n1 [III-30] | 0.3 (≈ 0.903 µM) | > 20 | > 60 | 
CCCCCOC1CCC(NC(=O)c2ncn3c(C(C)C)cc(C)nc23)CC1 (centres unmarked) [III-44] | 30.9 (≈ 79.9 µM) | < 10 | 30 to 60 | 

Compound | solubility [1] [µg/mL] | activation at 0.1 µM [2] [%] | activation at 1 µM [2] [%] | Compound Solubility in Water [1] [µg/mL]
Cc1cc(C)n2cnc(C(=O)NC(C)(C)c3cccc(Cl)c3)c2n1 [III-82] | 14.8 (≈ 43.2 µM) | < 10 | > 60 | 
CCCOc1cccc(C(C)(C)NC(=O)c2ncn3c(C4CC4)cc(COC)nc23)c1 [III-50] | 31.3 (≈ 74.1 µM) | 10 to 20 | > 60 | 
C#Cc1cccc(C(C)(C)NC(=O)c2ncn3c(C)cc(C)nc23)c1 [III-41] | 7.6 (≈ 22.9 µM) | 10 to 20 | > 60 | 
Cc1cc(C)n2cnc(C(=O)Nc3ccc4nc(C)oc4c3)c2n1 [III-15] | 3 (≈ 9.34 µM) | < 10 | < 30 | 
COCc1cc(C(C)C)nc2c(C(=O)NC(C)(C)c3cccc(OC4CC4)c3)ncn12 [III-58] | 28.9 (≈ 68.4 µM) | 10 to 20 | > 60 | 
Cc1cc(C)n2cnc(C(=O)Nc3ccc4oncc4c3)c2n1 [III-18] | 2.3 (≈ 7.48 µM) | < 10 | < 30 | 
Cc1cc(C)n2cnc(C(=O)Nc3ccc4nccc(O)c4c3)c2n1 [III-25] |  | < 10 | < 30 | 3.8
Cc1cc(C(F)(F)F)nc2c(C(=O)NC3(C)CCCc4ccccc43)ncn12 (centres unmarked) [III-34] | 24.9 (≈ 64.1 µM) | < 10 | < 30 | 
Cc1cc(C)n2cnc(C(=O)Nc3ccc(-c4cocn4)cc3)c2n1 [III-3] | 4.8 (≈ 14.4 µM) | < 10 | 30 to 60 | 
Cc1cc(C(C)C)n2cnc(C(=O)Nc3cccc4c3CCC4)c2n1 [III-45] | 1 (≈ 2.99 µM) | > 20 | > 60 | 
Cc1cc(C)n2cnc(C(=O)Nc3ccc4c(=O)cc(C)oc4c3)c2n1 [III-17] | 0.4 (≈ 1.15 µM) | < 10 | < 30 | 
Cc1cc(C)n2cnc(C(=O)N[C@@H](C)c3ccccc3F)c2n1 [III-74] | 37.3 (≈ 119 µM) | < 10 | < 30 | 
CCOCc1cccc(C(C)(C)NC(=O)c2ncn3c(C(C)C)cc(COC)nc23)c1 [III-60] | 31.2 (≈ 73.5 µM) | < 10 | < 30 | 
CCCCCCO[C@H]1CC[C@H](NC(=O)c2ncn3c(C)cc(C)nc23)C1 [III-47] | 30.6 (≈ 85.4 µM) | < 10 | > 60 | 
Cc1cc(C)n2cnc(C(=O)Nc3ccc4c(c3)CCNC4)c2n1 [III-16] | 29.9 (≈ 93 µM) | < 10 | < 30 | 
Cc1cc(C)n2cnc(C(=O)N[C@H]3CC[C@H](OC4CCC(C)(C)CC4)CC3)c2n1 [III-46] | 4.9 (≈ 12.3 µM) | 10 to 20 | > 60 | 
Cc1cc(C)n2cnc(C(=O)Nc3ccc4[nH]ncc4c3)c2n1 [III-8] | 0.4 (≈ 1.31 µM) | < 10 | < 30 | 
Cc1cc(C)n2cnc(C(=O)NC3Cc4ccccc4C3)c2n1 [III-67] | 18 (≈ 58.8 µM) | < 10 | < 30 | 
Cc1cc(C)n2cnc(C(=O)Nc3ccc(-c4ncco4)cc3)c2n1 [III-4] | 7.9 (≈ 23.7 µM) | < 10 | 30 to 60 | 
C#Cc1ccc(C(C)(C)NC(=O)c2ncn3c(C)cc(C(F)(F)F)nc23)cc1 [III-39] |  | < 10 | < 30 | 
C#Cc1ccc(NC(=O)c2ncn3c(C)cc(C)nc23)c(F)c1 [III-48] |  | 10 to 20 | > 60 | 
C#Cc1ccc(NC(=O)c2ncn3c(C)cc(C)nc23)cc1F [III-49] |  | 10 to 20 | > 60 | 
COCc1cc(C2CC2)nc2c(C(=O)NC3(C)CCOc4c(F)ccc(F)c43)ncn12 (centres unmarked) [III-33] |  | 10 to 20 | > 60 | 
